Holding throughout (experiment): NCI-60 cell line screen, 48 h
In assay [1] the test system is NCI-H522.
Assay [2] deals with IGROV-1.
For assay [3], the system named is OVCAR-8.
For assay [4], the system named is SF-539.
Assay [5] deals with RXF 393.
Assay [6] has as its system EKVX.
In assay [7] the test system is SNB-19.
For assay [8], the system named is HCT-15.
Assay [9] has as its system HT-29.
Assay [10] concerns Hs-578T.
For assay [11], the system named is A498.
Assay [12] relates to A549.
Assay [13] has as its system Malme-3M.
For assay [14], the system named is SNB-75.
Assay [15] has as its system MDA-N.
The test system of assay [16] is HOP-62.
Assay [17] concerns U-251.
In assay [18] the test system is SF-268.
The subject of assay [19] is NCI-H23.
Assay [20] has as its system PC-3.

Four compounds from ChEMBL document CHEMBL1201862, “PubChem BioAssay data set” (2004) can be followed below.

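Method: 48-hour compound exposure of cells in 96-well plates, five concentrations, linear interpolation of endpoints. GI50 marks 50% less growth.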 Active and inactive are the calls of the source. Rule as the data show it: active = GI50 up to about 1.1 µM and inactive = higher.

Turning to `O=C1/C(=C\c2ccccc2)C(NC2CCCCC2)c2ccccc21` (stereo not given), the GI50 in assay [1] was 0.578 µM (active); in [2], 2.99 µM (inactive); in assay [3] it was 2.12 µM (inactive); in [4] it was 1 µM (active); in assay [5] it was 1.56 µM (inactive); in assay [6] it was 3.3 µM (inactive). Moreover, the GI50 in [7] is 10.5 µM (inactive); in [8] it was 2.15 µM; in assay [9], 1.42 µM (inactive); in assay [10] it was 3.18 µM (inactive); in assay [11], 18.6 µM (inactive); in assay [12] it was 4.05 µM (inactive). Moreover, the GI50 in [13] is 1.46 µM (inactive); in [14], 2.17 µM (inactive); in assay [15], 1.43 µM (inactive); in assay [16] it was 2.46 µM (inactive); in [17], 1.73 µM (inactive); in [18], 3.46 µM (inactive). Further, the GI50 was 0.76 µM (active) in [19] and 1.78 µM (inactive) in [20].

Regarding `CCOC(=O)C(NC(=O)CC(C)C)(N1CCN(c2cc3c(cc2F)c(=O)c(C(=O)O)cn3C2CC2)CC1)C(F)(F)F` (stereo not given), the GI50 in [1] is 2.73 µM (inactive); in [2], 12.6 µM (inactive); in assay [3], 21.1 µM (inactive); in [4], 17.5 µM (inactive); in [5], 17.2 µM (inactive); in [6], 23.4 µM (inactive). The GI50 in [7] was 28.8 µM (inactive); in assay [8] it was 10 µM; in assay [9] it was 29.3 µM (inactive); in [10], 21.8 µM (inactive); in assay [11] it was 1.73 µM (inactive); in assay [12], 27.5 µM (inactive). In addition, the GI50 in assay [13] was 17.6 µM (inactive); in assay [14], 21.4 µM (inactive); in assay [15], 20.3 µM (inactive); in [16] it was 36.6 µM (inactive); in assay [17] it was 14.7 µM (inactive); in assay [18], 11.1 µM (inactive). The GI50 in [19] is 7.46 µM (inactive); in assay [20], 15 µM (inactive).

For `COC(=O)C1Cc2c(OC)ccc(OC)c2CC(C(=O)OC)C1=O` (stereo not given), the GI50 in [1], in assay [2], in [3], in [4], in [5] and in [6] was > 100 µM (inactive) in each case. Also, the GI50 in assay [7] was > 100 µM (inactive); in assay [8] it was over 100 µM; in assay [9], > 100 µM (inactive); in [10], > 100 µM (inactive); in [11] it was > 100 µM (inactive); in assay [12], > 100 µM (inactive). The GI50 in [13], in assay [14], in [15], in assay [16], in [17] and in [18] was > 100 µM (inactive) throughout. Besides, the GI50 was 32.4 µM (inactive) in assay [19] and > 100 µM (inactive) in assay [20].

Turning to `O=c1c(=O)c2cscc2c1=O`, the GI50 in [1] is 0.486 µM (active); in assay [2] it was 4.66 µM (inactive); in [3], 6.55 µM (inactive); in [4], 4.95 µM (inactive); in assay [5] it was 4.74 µM (inactive); in assay [6], 5.11 µM (inactive). The GI50 in [7] was 6.56 µM (inactive); in assay [8], 5.78 µM; in assay [9], 4.93 µM (inactive); in assay [10], 9.75 µM (inactive); in [11] it was > 25 µM (inactive); in [12], 8.99 µM (inactive). The GI50 in assay [13] was 4.39 µM (inactive); in assay [14] it was 4.32 µM (inactive); in assay [15], 4.99 µM (inactive); in [16] it was 5.15 µM (inactive); in [17] it was 4.75 µM (inactive); in [18], 4.4 µM (inactive). The GI50 in assay [19] was 5.61 µM (inactive); in assay [20], 4.58 µM (inactive).
